# Patent US20080279843A1, “Method For Improving Insulin Sensitivity By Administering an Inhibitor of Antitrypsin” (Essential SkinCare, LLC, priority 2003, published 2008)
# What was measured:
# [1] = system: differentiated rat L6 muscle cells; assay: Synthesis of [14C]glycogen from radiolabeled glucose; type: cell-based
# Procedure: (§1) Rat L6 skeletal muscle cells were obtained from the American Type Culture Collection, Rockville, Md. L6 cell monolayers were induced to differentiate in Minimal Essential Medium (MEM) containing 2% (v/v) fetal bovine serum (FBS) and 1% (v/v) antibiotic/antimycotic solution. The cells were fed fresh medium every 48 hours. Myoblast differentiation, which occurred by about the 7-9th day, was monitored by phase contrast microscopy. Differentiated L6 cells are widely used models for studying glucose metabolism in the skeletal muscle. The present study was focused on these cells, because skeletal muscle accounts for about 70-80% of total blood glucose metabolism in the human body.
# (§2) To examine cellular glucose uptake and metabolism, differentiated (attached) cells in 12-well plates were incubated at 37° C. in a CO2 incubator (95% air: 5% CO2) with D-[^14C]glucose (1 μCi/mL) in 2% FBS-containing medium containing 5.5 mM unlabeled glucose for 0.5-6 hours as indicated at the corresponding Figures. At the termination of incubation, the medium was removed. An aliquot of the medium was taken to determine the loss of [^14C]glucose from the medium which corresponds to its uptake by cells. Cells were washed twice with 3 ml medium to remove traces of medium containing unincorporated radioactivity. Ice-cold 99.8% methanol/0.2% water (v/v) mixture (1 ml) was then added to the monolayers and cells were extracted for 2 hours at −20° C. […] The methanol phase (1 ml) and a following 1 ml methanol wash were added to 2 ml chloroform followed by the addition of 3 ml water. Of the resulting two phases (separation was facilitated by brief centrifugation), the lower phase contained the total radiolabeled lipids, while the upper phase contained [^14C]glucose.
# (§3) Aliquots of the upper and lower phases were taken to scintillation vials to determine the amounts of radiolabeled glucose and total lipids, respectively, by liquid scintillation counting. Precipitated [^14C]glycogen was suspended in 0.75 ml of 1 M NaOH and transferred to scintillation vial. This procedure was repeated with another 0.75 ml aliquot of NaOH. To neutralize the suspension, […] (approximately 150 μL) was then added to the vials, followed by the addition of 8.5 ml Ecolume (scintillation fluid). While the 1 M NaOH suspension contained some particulate material (mostly protein which was not labeled with radiolabeled glucose), no precipitate remained in the suspension after addition of Ecolume. […] No additional radioactivity could be removed from the well by neutralized 30% KOH.
# In some experiments, a published procedure [Huang, D., Cheung, A. T., Parsons, J. T. and Bryer-Ash, M. “Focal adhesion kinase (FAK) regulates insulin-stimulated glycogen synthesis in hepatocytes.” J. Biol. Chem. 277, 18151-18160, (2002)] was used to determine glucose incorporation into glycogen in a method similar to the one described above. After incubations with [^14C] glucose, cells were solubilized with 20% KOH for 2 hours. Lysates were extracted with 8% […], neutralized with 2.0 M HCl, then boiled for 5 min. The total glycogen was precipitated by the addition of 80% ethanol (final concentration) for 2 hours at −20° C. followed by centrifugation at 1100×g for 10 min. This step was repeated.
# After the pellets had been re-dissolved in distilled water, the samples were precipitated again using the same method described above, and yielded essentially the same results. In subsequent experiments the initial methanol precipitation method described above was used because it allowed for analysis of cellular glucose, glycogen and lipids from the same sample.
# Three groups of differentiated L6 cells, incubated in 12-well plates in 2% FBS-containing medium, were treated as follows. A first control group ([…]) was untreated. A second group (▴) was treated with 500 nM insulin for 30 min. A third group (▪) was treated first with 0.4 mg/ml of AT followed by an addition of 500 nM insulin for 30 min. […]
# C57/Black female mice = assay: Glucose tolerance test with insulin and commercial AT (Example 2); type: in vivo
# Procedure: C57/Black female mice weighing 22-23 g were fasted for 16 hours. Four animals were used for each of four treatment groups. The first and fourth treatment group received intraperitoneal injections of 1500 μg commercially obtained AT. Exactly 23 hours and 45 minutes after the AT was administered to the first and fourth treatment group, the animals in the first and second treatment group received 0.5 I.U. of insulin. Exactly 15 minutes after the insulin was administered (i.e., 24 hours after the AT was administered to the first treatment group), glucose (3 g/kg) was injected intraperitoneally into the first, second and third treatment groups. Blood samples were taken from the eyes (canthus), and glucose concentrations in whole blood samples were immediately measured with the fast Glucose C test (Wako Chemicals USA Inc., Richmond, Va., USA). The data presented are the mean ±S.D. of four determinations, one with each animal.
# [2] = system: differentiated rat L6 muscle cells; assay: Cellular uptake of D-[14C]glucose; type: cell-based
# Procedure: as §1, §2, §3
# Three groups of differentiated L6 cells, incubated in 12-well plates in 2% FBS-containing medium, were treated as follows. A first control group ([…]) was untreated. A second group (▴) was treated with 500 nM insulin for 30 min. A third group (▪) was treated first with 0.4 mg/ml of AT followed by an addition of 500 nM insulin for 30 min. Following the addition of D-[^14C]glucose, each group was incubated in the continuous presence of insulin and AT, as described above, for 0.5-6 hours.
# Four groups of differentiated L6 cells, incubated in 12-well plates in 2% FBS-containing medium, were treated as follows. A first control group was untreated. A second group was treated with 500 nM insulin for 30 min. A third group was treated with 0.05 to 0.4 mg/ml of AT for 10 min. Finally, a fourth group was treated with 0.05 to 0.4 mg/ml of AT for 10 min followed by the addition of 500 nM insulin for 30 min. […]
# [3] = system: differentiated rat L6 muscle cells; assay: Synthesis of [14C]total lipid from radiolabeled glucose; type: cell-based; conditions: FIG. 4C, 5 hours
# Procedure: as §1
# To examine cellular glucose uptake and metabolism, differentiated (attached) cells in 12-well plates were incubated at 37° C. in a CO2 incubator (95% air: 5% CO2) with D-[^14C]glucose (1 μCi/mL) in 2% FBS-containing medium containing 5.5 mM unlabeled glucose for 0.5-6 hours as indicated at the corresponding Figures. […] Cells were washed twice with 3 ml medium to remove traces of medium containing unincorporated radioactivity. […]
# Aliquots of the upper and lower phases were taken to scintillation vials to determine the amounts of radiolabeled glucose and total lipids, respectively, by liquid scintillation counting. […] No additional radioactivity could be removed from the well by neutralized 30% KOH. […]
# [4] = 0.4 mg/ml AT, 500 nM insulin, 30 min incubation
substance,measurement,setting,value
α1-antitrypsin [AT],"Effect of AT on the insulin effect on [14C]glycogen, short incubation",[1]; [4],no such inhibitory effects
same,Effect of AT on insulin-stimulated synthesis of [14C]glycogen,"[1]; FIG. 3B, 0.4 mg/ml purified AT, incubations for 2 hrs or 6 hours",inhibited both insulin effects
same,Effect of AT on cellular level of [14C]glycogen in the absence of insulin,"[1]; FIG. 4B, 0.05 to 0.4 mg/ml AT, 5 hours",did not significantly affect
same,Decrease of synthesis of cellular [14C]glycogen by AT in the presence of insulin,"[1]; FIG. 4B, 0.2 to 0.4 mg/ml AT, 500 nM insulin, 5 hours",at least 50%
same,Inhibition by AT of the insulin effect on [14C]glycogen synthesis,"[1]; FIG. 5, 0.4 mg/ml AT, 500 nM insulin, 5 hours",about 70%
same,Effect of AT on the action of insulin on blood glucose level,"C57/Black female mice; FIG. 2, AT 1.5 mg/mouse i.p. 24 h prior, insulin 0.5 I.U., glucose 3 g/kg i.p.",blocked the action of insulin
same,Effect of AT alone on the blood glucose level,"C57/Black female mice; FIG. 2 insert, AT 1.5 mg/mouse i.p., no insulin, no glucose (fourth treatment group)",no significant effect on the blood glucose level
same,"Effect of AT on the insulin effect on cellular [14C]glucose, short incubation",[2]; [4],no such inhibitory effects
same,Effect of AT on insulin-stimulated uptake of D-[14C]glucose,"[2]; FIG. 3A, 0.4 mg/ml purified AT, incubations for 2 hrs or 6 hours",inhibited both insulin effects
same,Effect of AT on cellular level of [14C]glucose in the absence of insulin,"[2]; FIG. 4A, 0.05 to 0.4 mg/ml AT, 5 hours",did not significantly affect
same,Decrease of cellular level of [14C]glucose by AT in the presence of insulin,"[2]; FIG. 4A, 0.2 to 0.4 mg/ml AT, 500 nM insulin, 5 hours",at least 50%
same,Effect of AT on cellular level of [14C]total lipid in the absence of insulin,[3]; 0.05 to 0.4 mg/ml AT,did not significantly affect
same,Decrease of synthesis of [14C]total lipid by AT in the presence of insulin,"[3]; 0.2 to 0.4 mg/ml AT, 500 nM insulin",at least 50%
